Data published in PubChem BioAssay AID1996.
Values after ≈ are worked out from the molar mass of the structure shown.

Conditions: buffer; pH 7.4; 200.0 µM

| SMILES | solubility kinetic [µg/mL] |
| --- | --- |
| CC1CN(C)CCC1OC(=O)c1ccccc1.Cl (stereo not drawn) | > 40.5 |
| O=C(/C=C/NCc1cccnc1)c1ccc(-c2ccccc2)cc1 | 2.8 (≈ 8.91 µM) |
| O=C(Nc1ccc2c(c1)OCCO2)c1cc(F)c(F)cc1Cl | 2.8 (≈ 8.6 µM) |
| O=C(Oc1ccccc1)c1cccnc1Oc1ccccc1 | 20.7 (≈ 71.1 µM) |
| NS(=O)(=O)c1cccc(NC(=O)CCC(=O)c2cccs2)c1 | > 50.8 |
| COc1ccccc1N1CC(C(=O)Nc2ccc(S(=O)(=O)N3CCCC3)cc2)CC1=O (stereo not drawn) | > 66.5 |
| CNC(=S)N1CCC(Cc2ccccc2)CC1 | 36.9 (≈ 149 µM) |
| O=C(CCCCl)Nc1nc(-c2ccc3c(c2)OCCO3)cs1 | 1.1 (≈ 3.25 µM) |
| Cc1cccc(C)c1NC(=O)C[n+]1cc(-c2ccccc2)n2c1CCC2.[Cl-] | > 57.3 |
| CN(C)S(=O)(=O)c1ccc(=S)[nH]c1 | 12.2 (≈ 55.9 µM) |
| O=C(COC(=O)C1CCCCC1)Nc1cc([N+](=O)[O-])ccc1F | 36.4 (≈ 112 µM) |
| Cc1nc([N+](=O)[O-])cn1CC(=O)Nc1ccc(Cl)cc1 | 6.1 (≈ 20.7 µM) |
| O=C(CSc1ncccn1)NC(=O)c1ccccc1 | 33.1 (≈ 121 µM) |
| COC(=O)c1ccsc1NC(=O)CCc1ccccc1 | 9.6 (≈ 33.2 µM) |
| O=C(Nc1nc2ccsc2c(=O)s1)C1CCC1 | 8.1 (≈ 30.4 µM) |
| O=C(COC(=O)Cc1ccccc1)Nc1cccnc1Cl | > 45.7 |
| Cc1cc(Br)ccc1NC(=S)N1CCOCC1 | > 47.3 |
| Cc1c(NC(=O)c2ccc(-c3ccccc3)cc2)cccc1C(=O)O | 42.3 (≈ 128 µM) |
| N/C(=N\OC(=O)CSc1ccccc1)c1ccncc1 | 37.6 (≈ 131 µM) |
| CC(=O)N1C(=O)NC2=C(C(=O)CCC2)C1c1cccc([N+](=O)[O-])c1 (stereo not drawn) | > 49.4 |
| CCN(CC(=O)NCC(=O)Nc1cccc(C)c1C)Cc1ccccc1 | > 53 |
| COc1cccc(-c2ocnc2C(=O)Nc2ccc3c(c2)CCC3)c1 | < 0.4 |

| SMILES | solubility kinetic [µg/mL] |
| --- | --- |
| O=C(CSc1ccccc1)NC1=NCCS1 | 32.4 (≈ 128 µM) |
| CCC(CC)NC(=O)c1cccc(Br)c1 | 38.1 (≈ 141 µM) |
| N#Cc1c(-c2cccs2)cc(-c2cccs2)[nH]c1=O | 0.7 (≈ 2.46 µM) |
| Cc1cc(C=C2C(=O)N(C)C(=S)N(C)C2=O)c(C)n1-c1cccnc1 | 13.9 (≈ 39.2 µM) |
| Cl.OCCCNCc1ccc(-c2ccccc2)cc1 | > 41.7 |
| O=C1CC(=O)N(c2cccc(C(F)(F)F)c2)C(=O)N1 | > 40.8 |
| Cc1cc(=O)[nH]c(NCc2ccc(Cl)cc2)n1 | > 37.5 |
| COc1ccc(NC(=O)Nc2ccncc2)c(OC)c1 | > 41 |
| O=C(Cc1ccccc1[N+](=O)[O-])N1CCOCC1 | > 37.5 |
| Cc1cccn2c(=O)c3cc(C(=O)NCC(C)C)sc3nc12 | 1.2 (≈ 3.8 µM) |
| CC(C)NC(=O)NC(=O)CSc1ncccn1 | > 38.1 |
| O=C(OCC(=O)c1ccc[nH]1)c1ccc(Cl)c(Cl)c1 | 6.8 (≈ 22.8 µM) |
| Cc1ccc(CNC(=O)CSc2nc3ccccc3c(=O)n2CC2CCCO2)cc1 (stereo not drawn) | 4.5 (≈ 10.6 µM) |
| Cc1ccccc1CNC(=O)C1CCCN(c2cnccn2)C1 (stereo not drawn) | 44.3 (≈ 143 µM) |
| COc1ccc(N2CCN(C(=O)CCc3ccccc3)CC2)cc1 | > 48.7 |
| COC(=O)c1ccc(N2CCS(=O)(=O)CC2)cc1 | > 40.4 |
| O=C(NCCNc1ccc([N+](=O)[O-])cc1)c1cc(F)c(F)cc1Cl | 2 (≈ 5.62 µM) |
| O=C(Nc1ccccc1C(=O)NCCCN1CCOCC1)c1ccc(F)cc1 | 55.4 (≈ 144 µM) |
| Cc1ccc(-c2noc(CCC(=O)NC3CC3)n2)cc1 | > 40.7 |
| CCOC(=O)Cc1csc(NC(=O)Nc2ccc(Cl)cc2)n1 | 1.3 (≈ 3.83 µM) |
| O=C(Nc1cscc1S(=O)(=O)c1ccc(Cl)cc1)c1ccccc1Cl | 2.6 (≈ 6.31 µM) |
